Key:
tumour = details: cited from earlier work
MS-2 fibrosarcoma = test: Tumour accumulation and tumour/muscle radioactivity ratio; format: in vivo, Balb/c mice; details: for Kinetics of tumour uptake and clearance, ^131 I--ZnPc versus ZnPc: mouse, in vivo; for Recovery from TUMOUR: average of three mice ± s.d.
Protocol: (§1) Experimental tests were carried out in Balb/c mice affected by a MS-2 fibrosarcoma. This tumour model had been previously used for extensive PDT studies with unlabelled ZnPc.
(§2) For tumour implantation 2×10^5 cells in 0.2 ml of sterile physiological solution were intramuscularly injected into the right hind leg of female Balb/c mice having a body wt. of 20-22 g. All the experiments were started on the eighth day after tumour implantation, when the external diameter was ca. 0.8 cm and no detectable spontaneous tumour necrosis had generally occurred. When necessary, mice were anesthetized by i.p. injection of Ketalar (150 mg/kg).
(§3) Balb/c mice bearing the MS-2 fibrosarcoma were injected in the tail vein with ^131 I--ZnPc at does between 0.024 and 0.096 MBq/g. At predetermined times up to 24 hours after injection, the whole body of the mice was scanned with a Gamma Camera General Electric Stargem in order to ensure the radioactivity levels at different anatomical sites. Then, the mice were sacrificed by prolonged exposure to ether vapours; the blood, tumour and selected normal tissues (muscle, skin, lung, liver, spleen, kidney, brain) were rapidly taken. The blood was centrifuged to remove the erythrocytes and the radioactivity in the plasma (100 μl) was analyzed. Moreover, tissues were washed with physiological solution, weighed, introduced into RIA test tubes and centrifuged for 10 minutes and 2000 g. The radioactivity was collected for 1 minute by a gamma counter (Packard Selektronik Design). A different group of mice was injected as above described, sacrificed at 3 hours, 15 hours, 24 hours, 48 hours and 96 hours after injection (three mice at each time) and the radioactivity in plasma and tissues homogenates was determined.
FIG. 2 is an histogram showing the ratio between the tumour/muscle radioactivity of ^131 I--ZnPc at different times after injection of 0.096 MBq/g ^131 I--ZnPc in DPPC liposomes; averaged ratios for three independently analyzed mice±s.d..
FIG. 3 is an histogram showing the ratio between the tumour/muscle radioactivity of ^131 I--ZnPc at different concentrations at 24 hours after injection of ^131 I--ZnPc in DPPC liposomes; averaged ratio for three independently analyzed mice±s.d..

[1] = In vivo whole body Gamma Camera scanning of radioactivity distribution; parameters: species or system Balb/c mice
Protocol: as §3

[2] = Biodistribution of ^131 I radioactivity in excised tissues after i.v. injection (pharmacokinetic studies, gamma counter); format: in vivo, Balb/c mice; details: for Recovery from BRAIN / Recovery from KIDNEY / Recovery from LIVER / Recovery from LUNG / Recovery from MUSCLE / Recovery from SPLEEN: 0.096 MBq/g in DPPC liposomes, average of three mice ± s.d.
Protocol: as §1, §2
^131 I--Zn(II)-phthalocyanine was incorporated into small unilamellar vesicles of DPPC following the procedure described by Valduga et al., J.Inorg.Biochem. (1987), 25-59.
as §3

[3] = Clearance of ^131 I--ZnPc from serum; format: in vivo, Balb/c mice
Protocol: as §3

[4] = i.v. 0.096 MBq/g in DPPC liposomes

[Zn+2].c1ccc2c(c1)-c1nc-2nc2[n-]c(nc3nc([n-]c4nc(n1)-c1ccccc1-4)-c1ccccc1-3)c1ccccc21 [ZnPc, Zn(II)-phthalocyanine]
Selectivity of tumour accumulation (tumour; in vivo): enhanced selectivity of tumour accumulation | Lowest phototherapeutically active dose (tumour; liposome-incorporated, doses as low as): 0.15 mg/kg body wt. | Kinetics of tumour uptake and clearance, ^131 I--ZnPc versus ZnPc (MS-2 fibrosarcoma): quite similar

^131 I--Zn(II)-phthalocyanine [^131 I--ZnPc]
Localization of radioactivity in the whole animal ([1]; at all examined time intervals): strictly localized at the level of liver and tumour with no general delocalization throughout the organism | Dissociation of ^131 I from the phthalocyanine in vivo ([1]; inferred from whole-animal distribution): unlikely that ^131 I is dissociated from the phthalocyanine to any significant extent | Recovery from BRAIN ([2]; 3 h): 11.7 ± 0.1 CPM/mg of tissue | Recovery from KIDNEY ([2]; 3 h): 156.9 ± 9.7 CPM/mg of tissue | Recovery from LIVER ([2]; 3 h): 984.2 ± 15.7 CPM/mg of tissue | Recovery from LUNG ([2]; 3 h): 168.3 ± 5.6 CPM/mg of tissue | Recovery from MUSCLE ([2]; 3 h): 41.1 ± 3.6 CPM/mg of tissue | Recovery from SPLEEN ([2]; 3 h): 600.9 ± 8.1 CPM/mg of tissue | Recovery from BRAIN ([2]; 15 h): 5.2 ± 1.5 CPM/mg of tissue | Recovery from KIDNEY ([2]; 15 h): 84.4 ± 8.4 CPM/mg of tissue | Recovery from LIVER ([2]; 15 h): 871.1 ± 146.8 CPM/mg of tissue | Recovery from LUNG ([2]; 15 h): 76.2 ± 31.4 CPM/mg of tissue | Recovery from MUSCLE ([2]; 15 h): 22.4 ± 9.3 CPM/mg of tissue | Recovery from SPLEEN ([2]; 15 h): 503.7 ± 46.8 CPM/mg of tissue | Recovery from BRAIN ([2]; 24 h): 4.3 ± 0.6 CPM/mg of tissue | Recovery from KIDNEY ([2]; 24 h): 77.3 ± 11.2 CPM/mg of tissue | Recovery from LIVER ([2]; 24 h): 1043.7 ± 72.5 CPM/mg of tissue | Recovery from LUNG ([2]; 24 h): 83.3 ± 12.4 CPM/mg of tissue | Recovery from MUSCLE ([2]; 24 h): 23.7 ± 2.0 CPM/mg of tissue | Recovery from SPLEEN ([2]; 24 h): 635.1 ± 65.8 CPM/mg of tissue | Recovery from BRAIN ([2]; 48 h): 3.4 CPM/mg of tissue | Recovery from KIDNEY ([2]; 48 h): 59.4 CPM/mg of tissue | Recovery from LIVER ([2]; 48 h): 849.1 ± 90.3 CPM/mg of tissue | Recovery from LUNG ([2]; 48 h): 73.4 CPM/mg of tissue | Recovery from MUSCLE ([2]; 48 h): 22.3 CPM/mg of tissue | Recovery from SPLEEN ([2]; 48 h): 549.7 CPM/mg of tissue | Recovery from BRAIN ([2]; 96 h): 2.0 ± 0.4 CPM/mg of tissue | Recovery from KIDNEY ([2]; 96 h): 61.6 ± 16.8 CPM/mg of tissue | Recovery from LIVER ([2]; 96 h): 831.9 ± 52.5 CPM/mg of tissue | Recovery from LUNG ([2]; 96 h): 52.1 ± 6.9 CPM/mg of tissue | Recovery from MUSCLE ([2]; 96 h): 15.8 ± 2.5 CPM/mg of tissue | Recovery from SPLEEN ([2]; 96 h): 413.0 ± 42.7 CPM/mg of tissue | Amounts recovered from muscle ([2]; at all times): small amounts of phthalocyanine are recovered from muscle at all times | Elimination from liver and spleen ([2]; during the initial four days): relatively slow elimination at least during the initial four days | Amounts recovered from brain ([2]; i.v. in DPPC liposomes): minimal amounts | Levels in kidneys ([2]; i.v. in DPPC liposomes): comparatively low levels observed in kidneys | Recovery in the liver and spleen ([2]; i.v. in DPPC liposomes): very high in the liver and spleen | Toxic effects on the central nervous system ([2]; inferred from minimal brain recovery): unlikely | Amount cleared via the kidneys ([2]; main elimination via bile-gut pathway): only minor amounts cleared via the kidneys | Amount accumulated by liver and spleen ([2]; mouse, in vivo): large amount accumulated by liver and spleen | Accumulation in the liver compared with ZnPc ([2]; short post-injection times): greater accumulation | Liver concentration relative to tumour ([2]; short post-injection times): ca. 7 fold | Time of maximum tumour-to-muscle concentration ratio (MS-2 fibrosarcoma; 0.096 MBq/g in DPPC liposomes, FIG. 2): 15 h | Tumour-to-muscle concentration ratio over the studied time interval (MS-2 fibrosarcoma; 0.096 MBq/g in DPPC liposomes, after 15 hours, FIG. 2): remains at an essentially constant level throughout the studied time interval | Recovery from TUMOUR (MS-2 fibrosarcoma; 3 h, 0.096 MBq/g in DPPC liposomes): 140.3 ± 38.6 CPM/mg of tissue | Recovery from TUMOUR (MS-2 fibrosarcoma; 15 h, 0.096 MBq/g in DPPC liposomes): 182.7 ± 16.0 CPM/mg of tissue | Recovery from TUMOUR (MS-2 fibrosarcoma; 24 h, 0.096 MBq/g in DPPC liposomes): 212.9 ± 8.6 CPM/mg of tissue | Effect of injected dose on tumour/muscle ratio (MS-2 fibrosarcoma; 24 hours after administration, 0.024 to 0.096 MBq/g, FIG. 3): affected to a minor extent by the injected dose | Recovery from TUMOUR (MS-2 fibrosarcoma; 48 h, 0.096 MBq/g in DPPC liposomes): 180.7 CPM/mg of tissue | Recovery from TUMOUR (MS-2 fibrosarcoma; 96 h, 0.096 MBq/g in DPPC liposomes): 162.2 ± 19.5 CPM/mg of tissue | Tumour localization (MS-2 fibrosarcoma; ^131 I label): efficient and selective tumour localizer | Time of maximal tumour concentration (MS-2 fibrosarcoma; after ca.): ca. 24 hours | Rate of uptake by the tumour (MS-2 fibrosarcoma; compared with several normal tissues): relatively low rate of uptake by the tumour as compared with several normal tissues | Time of maximum accumulation in tumour (MS-2 fibrosarcoma; [4]): 24 h | Kinetics of tumour uptake and clearance, ^131 I--ZnPc versus ZnPc (MS-2 fibrosarcoma): quite similar | Selectivity of tumour targeting (tumour/muscle ratio) compared with ZnPc (MS-2 fibrosarcoma; tumour/muscle ratios of phthalocyanine recovery): almost twice higher selectivity of tumour targeting | Clearance rate from serum [3, 4]: particularly fast during the initial 15 hours after administration | Elimination from mouse serum ([3]; i.v. 0.096 MBq/g in DPPC liposomes, within 96 hours): almost completely eliminated from mouse serum within 96 hours | Clearance profile from the serum ([3]; mouse, in vivo): apparently polyphasic clearance from the serum | Initial radioactivity disappearing from serum ([3]; within the initial 24 hours post-injection, almost): ~80%

— patent US6165441A, “Method of diagnosis and photodynamic therapy of tumours” (Nycomed Amersham Sorin SRL, priority 1995, dated 2000)
